The text below walks through data of patent publication US20260092179A1, “GENETICALLY MODIFIED HOST CELLS PRODUCING VIOLACEIN, ANALOGUES, AND DERIVATIVES THEREOF” (OCTARINE BIO APS, priority 2022, published 2026).

≈ marks a conversion by molar mass, not a printed value.

A short description of data set [1]: UV absorption capability (absorbance maxima, UV-A, UV-B, UV-C absorption) by HPLC. The data set is classed as physicochemical. To be noted: for UV absorption capability in the UV-C region: 245 nm; for Total UV absorption UV C (245 nm): AUC of HPLC peak at 245 nm per mM; for Total UV absorption UV B (305 nm): AUC of HPLC peak at 305 nm per mM; for Total UV absorption UV A (360 nm): AUC of HPLC peak at 360 nm per mM. As to the method: The software Agilent Openlab CDS Chemstation Rev.
Violacein is reported as being a potent UV absorbent able to effectively absorb UV radiation, however, much less is known about the other violacein derivatives. To investigate the potential of using violacein and violacein derivatives as UV inhibitors and to potentially impart UV protection to fabrics, the UV absorption spectra of each compound was analyzed by HPLC and the total absorption capability at each of the most relevant UV wavelengths quantified.
For the quantification of UV absorption capacity of the compound of interest, a chromatographic separation on the F5 column and a gradient of water/acetonitrile containing 0.05% formic acid was run according to Example 5). […] The compounds were quantified based on the signal at 230 nm, using calibration curves of authentic analytical standards.
The UV absorption capacity is represented in mAU.min/mM. UV-A, UV-B and UV-C represent the most relevant regions where UV protection is required. UV-C is the most harmful type of UV radiation and can be generated by inorganic sources. UV-B radiation predominantly comes from the suns rays and is responsible for sun burn. UV-A radiation is also derived predominantly from the suns rays, and while UV-A radiation is less harmful than UV-B or UV-C but is much more prevalent.

A short description of data set [2]: Solubility of violacein in 100% methanol (stock solutions). The data set is classed as physicochemical. The settings on record: organic solvent or mixture, read-out: soluble in 100% methanol. From the text: In Example 7, S. cerevisiae was engineered to produce violacein and 3 other violacein derivatives (deoxyviolacein, proviolacein, and prodeoxyviolacein). However, during cultivation experiments a number of issues were observed. […] On agar plate we also observed a number of colonies losing their colour, indicating rapid selection against the introduced biosynthetic pathway. […] Issues with toxicity, solubility, and product export have significant negative effects on production of these compounds and limit the commercial viability. To overcome these issues, we investigated whether glycosylation of the compounds could provide a positive impact and improve production. Because violacein and violacein derivatives are not naturally glycosylated, we first sought to identify heterologous glycosyltransferase enzymes displaying promiscuous activity towards these compounds by running a series of in vitro glycosyltransferase enzyme assays using violacein and violacein derivatives as substrate

Take `O=C1NC(c2c[nH]c3ccccc23)=C/C1=C1\C(=O)Nc2ccccc21` [deoxyviolacein]: in data set [1], the “UV absorption capability in the UV-C region” value is “particularly high”, the “Total UV absorption UV C (245 nm)” value is on record as 9251.6 (mAU · min)/mM, the “Total UV absorption UV B (305 nm)” value is 0 (mAU · min)/mM and the “Total UV absorption UV A (360 nm)” value was 702.8 (mAU · min)/mM.
In the case of `O=C1N=C(c2c[nH]c3ccc(O)cc23)C=C1c1c[nH]c2ccccc12` [proviolacein], the “UV absorption capability in the UV-B region” value in data set [1] (305 nm) is “particularly high”. Besides, in data set [1], the “Total UV absorption UV C (245 nm)” value is 3142.9 (mAU · min)/mM, the “Total UV absorption UV B (305 nm)” value is on record as 4097.7 (mAU · min)/mM and the “Total UV absorption UV A (360 nm)” value is listed as 0 (mAU · min)/mM.
In the case of `O=C1NC(c2c[nH]c3ccc(O)cc23)=C/C1=C1\C(=O)Nc2ccccc21` [violacein], in data set [2], the solubility was 5 mM (≈ 1720 µg/mL). In data set [1], the “UV absorption capability in the UV-C region” value is listed as “particularly high”, the “Total UV absorption UV C (245 nm)” value is recorded as 8876.8 (mAU · min)/mM, the “Total UV absorption UV B (305 nm)” value was 1011.6 (mAU · min)/mM and the “Total UV absorption UV A (360 nm)” value was 411.4 (mAU · min)/mM.
